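These data come from cells grown in 96-well plates and exposed to compound for 48 hours at five concentrations. GI50: concentration for 50% inhibition of growth.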 Active and inactive are the calls of the source. Rule as the data show it: active = GI50 up to about 1.1 µM and inactive = higher.
How the values were obtained:
Experiment in all cases: DTP human tumour cell line panel, 48 h
DU-145 = tested on: DU-145
HCT-116 = tested on: HCT-116
HOP-92 = tested on: HOP-92
HT-29 = tested on: HT-29
K562 = tested on: K562
M14 = tested on: M14
MDA-MB-231 = tested on: MDA-MB-231
MDA-N = tested on: MDA-N
MOLT-4 = tested on: MOLT-4
NCI-H460 = tested on: NCI-H460
OVCAR-5 = tested on: OVCAR-5
RPMI-8226 = tested on: RPMI-8226
SF-268 = tested on: SF-268
SK-MEL-28 = tested on: SK-MEL-28
SK-MEL-2 = tested on: SK-MEL-2
SK-OV-3 = tested on: SK-OV-3
SN12C = tested on: SN12C
SW-620 = tested on: SW-620
T47D = tested on: T47D
UACC-257 = tested on: UACC-257

Measured: GI50

N#CC1=C2SCCN2C(=O)C(C#N)C12CCCCC2 (stereo not given)
inactive: DU-145 > 100 µM | HCT-116 > 100 µM | HOP-92 > 100 µM | HT-29 > 100 µM | K562 > 100 µM | M14 > 100 µM | MDA-MB-231 > 100 µM | MDA-N > 100 µM | MOLT-4 > 100 µM | NCI-H460 > 100 µM | OVCAR-5 > 100 µM | RPMI-8226 > 100 µM | SF-268 > 100 µM | SK-MEL-28 > 100 µM | SK-MEL-2 > 100 µM | SK-OV-3 > 100 µM | SN12C > 100 µM | SW-620 > 100 µM | T47D > 100 µM | UACC-257 > 100 µM

O=C1C=CC(=O)c2c1ccc1c3ccccc3n(CCCCCn3c4ccccc4c4ccc5c(c43)C(=O)C=CC5=O)c21
inactive: DU-145 > 55.7 µM | HCT-116 12.8 µM | HOP-92 16.5 µM | HT-29 32 µM | K562 2.06 µM | M14 20.1 µM | MDA-MB-231 21.2 µM | MDA-N 20.3 µM | MOLT-4 1.52 µM | NCI-H460 > 78 µM | OVCAR-5 > 49.5 µM | RPMI-8226 4.14 µM | SF-268 15.7 µM | SK-MEL-28 16.4 µM | SK-MEL-2 23.3 µM | SK-OV-3 > 100 µM | SN12C 18.4 µM | SW-620 8.17 µM | T47D 4.81 µM | UACC-257 16.3 µM

C=CC1(c2ccc(Br)cc2)OCCCO1
inactive: DU-145 > 100 µM | HCT-116 > 100 µM | HOP-92 > 100 µM | HT-29 > 100 µM | K562 > 100 µM | M14 > 100 µM | MDA-MB-231 > 100 µM | MDA-N > 100 µM | MOLT-4 > 100 µM | NCI-H460 > 100 µM | OVCAR-5 > 100 µM | RPMI-8226 > 100 µM | SF-268 > 100 µM | SK-MEL-28 > 100 µM | SK-MEL-2 > 100 µM | SK-OV-3 > 100 µM | SN12C > 100 µM | SW-620 > 100 µM | T47D > 100 µM | UACC-257 > 100 µM

Cc1cccc(C)c1/N=N/c1ccc(O)c(CN(C)C)c1
inactive: DU-145 > 100 µM | HCT-116 68.7 µM | HOP-92 3.21 µM | HT-29 22.7 µM | K562 28.6 µM | M14 24.7 µM | MDA-MB-231 > 100 µM | MDA-N 50.8 µM | MOLT-4 34.8 µM | NCI-H460 26 µM | OVCAR-5 28.3 µM | RPMI-8226 29 µM | SF-268 47 µM | SK-MEL-28 20.7 µM | SK-MEL-2 25.2 µM | SK-OV-3 > 100 µM | SN12C > 100 µM | SW-620 91.2 µM | T47D 23.6 µM | UACC-257 32.7 µM
